# Test results reported in patent US20210260091A1, “USE OF SALIDROSIDE AND DERIVATIVE THEREOF IN PREPARATION OF INHIBITOR MEDICAMENT FOR DISEASES OF OPHTHALMIC FIBROSIS CAUSED BY ABNORMALITIES OF EXTRACELLULAR MATRIX PROTEINS” (priority 2018, published 2021).
# Assays:
# [1] = Rabbit glaucoma model (1% dexamethasone eye drops), intraocular pressure; format: in vivo, New Zealand white rabbit; conditions: one week; for Average intraocular pressure, Left eye: 3 times a day, two drops, 4 h after treatment; for IOP reduction rate: left eye vs right eye; for Average intraocular pressure, Right eye: right eye as control
# Description: 1. Salidroside powder was dissolved in normal saline to prepare salidroside eye drops at the concentrations of 20 μM, 25 μM, 30 μM.
# 2. Fitly healthy, adult New Zealand white rabbit with body weight between 2.0 to 3.0 kg, consisting of equal numbers of male and female, were chosen for study. Rabbit glaucoma model was established by dosing the animals with 1% dexamethasone eye drops on both eyes 5 times a day for a total induction time of 3 weeks. Intraocular pressure was monitored starting from week 2. Glaucoma model was considered successfully established when intraocular pressure, measured at the same time of the day, was above 22 mmHg for a week. Glaucoma model was successful established on all 50 rabbits with the average intraocular pressure of 26.07±2.03 mmHg (n=100 eyes). Rabbits were randomly divided into 5 groups of 10: the normal control group, positive drug group (Travatan®, 0.004% travoprost eye drops), and three salidroside groups (20 μM, 25 μM, 30 μM salidroside).
# Positive drug group was treated with Travatan® in the left eye, three times a day, two drops each time. Intraocular pressure was measured 4 hours after treatment. Treatment lasted for two weeks. The three salidroside groups were treated with salidroside eye drops three times a day, two drops each time. Intraocular pressure was measured 4 hours after treatment. Treatment lasted for two weeks. The normal control group received eye drops in both eyes three times a day, two drops each time. Intraocular pressure was measured 4 hours after receiving eye drops. Eye drops were administered for 2 weeks.
# One week after the start of experiment, the average pressure for each eye after each measurement in each group is shown in Table 1.
# [2] = Mouse glaucoma model (intravitreal TGF-β2 overexpression adenovirus vector), intraocular pressure; format: in vivo, Balb/cJ mice; conditions: 40 mg/kg intraperitoneal once daily
# Description: 1. Salidroside powder was dissolved in normal saline to make 40 mg/kg salidroside solution. 2. Male Balb/cJ mice 8 to 12 weeks old and weighted about […] were used. The selected mice met the requirement of the first-level animal standards. Mice and feed were provided by the Experimental Animal Center of the Ninth People's Hospital, affiliated with Shanghai Jiaotong University School of Medicine. Vivarium temperature was controlled between 15 to 20° C., and relative humidity was 55 to 75%, with 12h light. Food and drinking water were on an ad libitum basis. Mice that met the inclusion criteria were selected: (1) no eye disease; (2) pupillary light reflexes in both eyes in response to direct and indirect light were normal. 4. Intraocular pressure in both the left and the right eye of each conscious mouse was measured and recorded. 5. Weight measurements of each mouse were taken. 4% chloral hydrate was injected to anaesthetize mice at a dose of 10 μL/g body weight; 6. Mouse glaucoma model: 3 μL TGF-β2 overexpression adenovirus vector (3×10^7 pfu/μL) was injected into the vitreous chamber to induce ocular hypertension. […] On the day of adenovirus vector intravitreal injection, mouse intraocular pressure was measured once. Intraocular pressure was measured again on the next day and subsequent selected days to avoid damage to the cornea caused by frequent measurement. […]
# [3] = system: laminin (LN), collagen IV (Col-IV) and fibronectin (FN) mRNA in trabecular meshwork cells; assay: qRT-PCR of extracellular matrix expression in dexamethasone-induced normal human trabecular meshwork cells; format: cell-based
# Description: Normal Trabecular Meshwork cells (NTM) were cultured with F12 containing 10% fetal bovine serum (FBS). When the normal human trabecular meshwork cells were 75%-80% confluent, cells were digested with pancreatic enzymes and planted into a 6-well plate with 2 mL culture media per well.
# Normal human normal trabecular meshwork cells were used as a untreated control group. Normal human trabecular meshwork cells with dexamethasone added were used as the experimental control group. Normal human trabecular meshwork cells with dexamethasone and different concentrations of salidroside added were used as the experimental groups (The concentration of dexamethasone used in the experimental control group and the experimental groups was 10^−7 mol/L. The concentrations of salidroside were 1, 3, 10, 30, 100 μmol/L, respectively). The trabecular meshwork cells were cultured for 0, 3, 6, 12, 24, 48 h.
# Primer sequences for laminin (LN), collagen IV (Col-IV) and fibronectin (FN) mRNA were designed. Messenger RNA levels of LN, Col-IV, and FN were detected with qRT-PCR. Anti-LN, anti-Col-IV, and anti-FN antibodies were used to detect protein expression of the trabecular meshwork extracellular matrix protein in immunocytochemistry.
# FIGS. 1-3 show the effect of salidroside detected by the qRT-PCR on the extracellular matrix proteins of human trabecular meshwork induced by the dexamethasone. […]
compound,measurement,setting,value
"OC[C@H]1O[C@@H](OCCc2ccc(O)cc2)[C@H](O)[C@@H](O)[C@@H]1O [Salidroside, 2-(4-HYDROXYPHENYL) ETHYL-BETA-D-GLUCOPYRANOSIDE]","Average intraocular pressure, Left eye",[1]; 20 μM eye drops,15.57 ± 1.52 mmHg
same,IOP reduction rate,[1]; 20 μM eye drops,30.98%
same,"Average intraocular pressure, Right eye",[1]; 20 μM group,22.56 ± 1.72 mmHg
same,"Average intraocular pressure, Left eye",[1]; 25 μM eye drops,15.07 ± 1.19 mmHg
same,IOP reduction rate,[1]; 25 μM eye drops,34.56%
same,"Average intraocular pressure, Right eye",[1]; 25 μM group,23.03 ± 1.02 mmHg
same,"Average intraocular pressure, Left eye",[1]; 30 μM eye drops,14.37 ± 1.54 mmHg
same,IOP reduction rate,[1]; 30 μM eye drops,37.19%
same,"Average intraocular pressure, Right eye",[1]; 30 μM group,22.88 ± 1.09 mmHg
same,average intraocular pressure in the left eye compared with the corresponding right eye as a control,[1]; P<0.01,significant lowered
same,IOP-lowering effect compared with the Travatan group,"[1]; salidroside groups 20, 25, 30 μM eye drops",better than that of the Travatan® group
same,intraocular pressure vs glaucoma control group,"[2]; salidroside intervention group (treated immediately after vector injection), 11th day after initiation",statistically significantly lowered
same,intraocular pressure vs glaucoma control group,"[2]; salidroside treatment group (treated after IOP increased and stabilized), 18th day after initiation",statistically significantly lowered
same,"expression level of TGF beta, FN, COL-IV and LN","[3]; applicant's previous studies, dexamethasone-induced cells, after intervention of salidroside",decreases
same,"extracellular matrix proteins of the trabecular meshwork (FN, COL-IV, LN; qRT-PCR)","[3]; dexamethasone 10^-7 mol/L plus salidroside 1, 3, 10, 30, 100 μmol/L, normal human trabecular meshwork cells",reduced
